The values below are quoted from earlier work in patent EP0277754A1, “Method involving propylene amine oxime complexes” (AMERSHAM INTERNATIONAL plc, priority 1987, dated 1988).

Each structure is given as a SMILES string.

As to `CC(=NO)C(C)(C)NCCCNC(C)(C)C(C)=NO` [PnAO], the “retention in human brain” value is “retained only to a small extent”.
